The values below are quoted from earlier work in US20210220286A1, “PHARMACEUTICAL COMPOSITION COMPRISING AMORPHOUS SUNITINIB” (SYNTHON B.V., priority 2018, published 2021).

The conditions of this series: WO03016305, cited from earlier work; for stability of polymorphic form: ambient conditions.

As to `CCN(CC)CCNC(=O)c1c(C)[nH]c(/C=C2\C(=O)Nc3ccc(F)cc32)c1C` [Form I, sunitinib L-malate], the “stability of polymorphic form” value is listed as “most stable form”.

With `CCN(CC)CCNC(=O)c1c(C)[nH]c(/C=C2\C(=O)Nc3ccc(F)cc32)c1C` [Form II, sunitinib L-malate], the “stability of polymorphic form” value is reported as “less stable” and the “hygroscopicity of polymorphic form” value is “hygroscopic”. Further, the “solubility of polymorphic form” value (compared with form I) is on record as “more soluble”.
